Results as given in patent publication US20230002377A1, “THERAPEUTIC COMBINATIONS OF DRUGS AND METHODS OF USING THEM” (HARMONY BIOSCIENCES, LLC, priority 2020, published 2023).
Where “and” joins values, the source holds several entries; their conditions need not be identical. Equal entries are not always repeated. Where two headings read alike, the source gives them in different places.

Key:
[1] = target: Transporter, Dopamine (DAT) (Homo sapiens, UniProt Q01959); experiment: DAT radioligand binding ([125I] RTI-55), Eurofins; settings: read-out: DAT, % inhibition, 10 nM compound
Chain of Transporter, Dopamine (DAT) (Q01959 whole entry): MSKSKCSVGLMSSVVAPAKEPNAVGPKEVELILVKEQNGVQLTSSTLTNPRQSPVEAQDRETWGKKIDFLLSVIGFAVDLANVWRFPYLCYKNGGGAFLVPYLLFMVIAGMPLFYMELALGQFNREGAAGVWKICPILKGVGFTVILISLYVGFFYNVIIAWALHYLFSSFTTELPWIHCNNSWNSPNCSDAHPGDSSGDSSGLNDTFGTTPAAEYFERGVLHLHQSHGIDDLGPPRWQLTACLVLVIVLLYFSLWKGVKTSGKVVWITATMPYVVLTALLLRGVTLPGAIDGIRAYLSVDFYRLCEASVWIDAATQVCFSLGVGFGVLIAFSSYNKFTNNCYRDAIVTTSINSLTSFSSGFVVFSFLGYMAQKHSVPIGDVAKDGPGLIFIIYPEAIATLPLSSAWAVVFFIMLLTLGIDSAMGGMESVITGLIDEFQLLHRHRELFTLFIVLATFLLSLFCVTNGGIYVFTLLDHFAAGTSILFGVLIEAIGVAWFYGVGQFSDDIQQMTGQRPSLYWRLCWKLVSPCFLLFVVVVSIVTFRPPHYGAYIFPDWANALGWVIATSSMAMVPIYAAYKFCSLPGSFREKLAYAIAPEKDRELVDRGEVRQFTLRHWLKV
Description: Source: Human recombinant CHO—S cells;
Incubation Time/Temp: 3 hours @ 4° C.;
(§2) Incubation Buffer: 50 mM Tris-HCl, pH 7.4, 100 mM NaCl, 1 μM Leupeptin, 10 μM PMSF;
Non-Specific Ligand: 10.0 μM Nomifensine;
Specific Binding: 90% (Historical Values);
(§3) Quantitation Method: Radioligand Binding;

[2] = target: T1, serotonin transporters (SERT) (Homo sapiens, UniProt P31645); experiment: PET study of SERT occupancy with 11C-MADAM in healthy male volunteers; type: in vivo; settings: read-out: SERT RO %; for receptor occupancy at 10 mg: 10 mg once a day; for receptor occupancy at 30 mg: 30 mg once a day; for receptor occupancy at 45 mg: 45 mg once a day (30 mg for 3 days first); for receptor occupancy at 60 mg: 60 mg once a day (30 mg for 3 days first)
T1 construct: evaluate in healthy male volunteers with respect to safety, tolerability and pharmacokinetics as well as DAT and SERT occupancy; from tissue; host or cells: living human brain (striatum, thalamus), PET in healthy male volunteers
T1 sequence (P31645 whole entry): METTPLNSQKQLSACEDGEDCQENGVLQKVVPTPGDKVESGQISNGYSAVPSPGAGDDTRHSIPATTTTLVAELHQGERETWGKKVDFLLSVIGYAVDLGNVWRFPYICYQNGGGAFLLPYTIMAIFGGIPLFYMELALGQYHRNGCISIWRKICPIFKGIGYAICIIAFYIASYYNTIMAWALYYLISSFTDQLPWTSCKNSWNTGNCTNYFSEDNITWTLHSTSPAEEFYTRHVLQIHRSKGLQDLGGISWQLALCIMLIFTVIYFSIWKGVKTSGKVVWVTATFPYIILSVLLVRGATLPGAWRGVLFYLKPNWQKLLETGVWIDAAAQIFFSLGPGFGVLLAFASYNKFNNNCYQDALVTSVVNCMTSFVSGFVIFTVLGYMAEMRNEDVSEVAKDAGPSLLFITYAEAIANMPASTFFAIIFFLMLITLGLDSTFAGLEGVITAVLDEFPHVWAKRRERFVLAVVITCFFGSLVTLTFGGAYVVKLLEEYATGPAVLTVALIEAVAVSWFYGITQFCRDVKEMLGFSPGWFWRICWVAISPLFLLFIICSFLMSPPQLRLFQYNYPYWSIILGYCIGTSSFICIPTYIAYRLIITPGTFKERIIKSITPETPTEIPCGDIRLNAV
Description: The PET study was a part of a strategy in previous clinical development of the compound of formula I to evaluate in healthy male volunteers with respect to safety, tolerability and pharmacokinetics as well as DAT and SERT occupancy.
The relationship between plasma the compound of formula I concentration and SERT occupancies, using the individual values, is presented in FIG. 8 and FIG. 9. The numeric values for the individual SERT and […] occupancy and the corresponding plasma concentrations are tabulated in Example 12.
(§1) Striatal receptor occupancy at dopamine transporters (DAT) and serotonin transporters (SERT) with plasma concentrations of Formula I at the midpoint time of the post dosing PET (positron emission tomography) scans (T=4 and 24) after once-a-day multiple doses of 3-60 mg and 10-60 mg for SERT and DAT healthy male cohorts, respectively (Tables below, RO stands for receptor occupancy). Post dosing PET scans were conducted at day 10 (4 h post last dose) and day 14 (24 h post last dose) assuming steady state conditions, using the specific DAT and SERT tracers ^11C-PE2I and ^11C-MADAM, respectively. For 45 mg and 60 mg cohorts, there was titration by administration of 30 mg for 3 days and then from day 4 the specified dose. Representative reports on using these two tracers are Leamed-Coughlin S M et al, Biol Psychiatry. 2003, 54(8):800-5; Jucaite A et al, Eur J Nucl Med Mol Imaging. 2006, 33(6):657-68; and Lundberg J et al, Int J Neuropsychopharmacol. 2007, 10(6):777-85.

[3] = target: T2, dopamine transporters (DAT) (Homo sapiens, UniProt Q01959); experiment: PET study of striatal DAT occupancy with 11C-PE2I in healthy male volunteers; type: in vivo
T2 construct: evaluate in healthy male volunteers with respect to safety, tolerability and pharmacokinetics as well as DAT and SERT occupancy; from tissue; host or cells: living human brain (striatum), PET in healthy male volunteers
T2 sequence (Q01959 whole entry): as the sequence (Q01959 whole entry) above
Description: The PET study was a part of a strategy in previous clinical development of the compound of formula I to evaluate in healthy male volunteers with respect to safety, tolerability and pharmacokinetics as well as DAT and SERT occupancy. […]
as §1

[4] = target: Transporter, Norepinephrine (NET) (Homo sapiens, UniProt P23975); experiment: NET radioligand binding ([125I] RTI-55), Eurofins; settings: read-out: NET, % inhibition, 10 nM compound
Chain of Transporter, Norepinephrine (NET) (P23975 whole entry): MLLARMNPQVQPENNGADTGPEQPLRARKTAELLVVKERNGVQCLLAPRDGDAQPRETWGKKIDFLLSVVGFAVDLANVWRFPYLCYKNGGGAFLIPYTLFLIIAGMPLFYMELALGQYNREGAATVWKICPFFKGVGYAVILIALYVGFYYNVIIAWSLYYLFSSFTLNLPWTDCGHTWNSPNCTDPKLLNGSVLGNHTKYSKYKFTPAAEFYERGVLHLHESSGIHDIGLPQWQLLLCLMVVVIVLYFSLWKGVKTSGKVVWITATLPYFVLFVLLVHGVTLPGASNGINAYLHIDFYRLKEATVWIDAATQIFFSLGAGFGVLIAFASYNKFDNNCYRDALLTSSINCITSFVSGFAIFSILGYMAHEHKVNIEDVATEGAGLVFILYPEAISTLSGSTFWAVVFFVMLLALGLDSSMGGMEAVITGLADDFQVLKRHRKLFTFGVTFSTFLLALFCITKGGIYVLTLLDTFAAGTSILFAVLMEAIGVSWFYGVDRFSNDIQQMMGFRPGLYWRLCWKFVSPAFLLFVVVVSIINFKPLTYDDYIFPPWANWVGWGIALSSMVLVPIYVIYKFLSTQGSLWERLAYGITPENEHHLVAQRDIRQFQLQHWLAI
Description: Source: Human recombinant MDCK cells;
Incubation Time/Temp: 3 hours @ 4° C.;
as §2
Non-Specific Ligand: 10.0 μM Desipramine;
as §3

[5] = 14-day once-a-day oral multiple ascending dose PK study, day-14 data; type: in vivo, human; settings: for Cmax: read-out: Formula I plasma concentration (Cmax); for concentration at 0 h: day 14, blood draw at 0 h (pre-dose trough)
Description: A LC-MS/MS method was developed and validated for the quantitation of Formula I in 0.250 mL of human EDTA plasma in a total of 7 runs, out of which 1 run was rejected. The method utilized stable labeled Formula I as an internal standard. After the addition of the internal standard (equivalent to 285.4 ng/mL in human EDTA plasma) and 0.250 mL of each quality control (QC) sample and calibration standard, 0.525 mL of methyl t-butyl ether (MTBE) was added to the 96-well sample tubes. The organic layer was removed and evaporated to dryness using a liquid-liquid extraction (LLE). The residue was reconstituted and injected into the LC-MS/MS system. Chromatographic separation was achieved through gradient elution on an Acquity UPLC, BEH Shield RP18™, 50×2.1 mm, 1.7 μm particle size column. The mobile phase contained water, acetonitrile, ammonium formate, and formic acid. Detection was accomplished using a Sciex API 4000 tandem mass spectrometer in positive ion electrospray SRM mode. The standard curves, which ranged from 1.00 to 1000 ng/mL for Formula I, were fitted to a 1/×2 weighted linear regression model. The intra-assay precisions, based on four levels of analytical QCs (low, mid, GM, and high), were within 4.2% CV and inter-assay precisions were within 7.2% CV for the analyte. The assay accuracy, expressed as % DEV, was within 6.4% of the nominal concentration values for the analyte. […] The LLOQ response ratio, when compared to the QCO response ratio, was >, 5 in all matrix lots. The analyte was stable in human EDTA plasma for at least 24 h at room temperature, for at least 14 days at −20° C., and following at least 3 freeze-thaw cycles. The processed samples were stable for 72 hours (h) at room temperature.
Tabulated, day-14 PK data (Cmax, Ctrough and AUC) for healthy humans in a 14-day, once-a-day oral dosing, multiple ascending dose study of compound of Formula I.

[6] = 24 h, day 14, 24 h post last dose

Clc1ccc(C2CNCc3cc(-c4ccc5ncnn5c4)ccc32)cc1Cl (stereo not drawn) [Formula I, 7-([1,2,4]triazolo[1,5-a]pyridin-6-yl)-4-(3,4-dichlorophenyl)-1,2,3,4-tetrahydroisoquinoline]
inhibition at 0.01 µM [1]: 47% | receptor occupancy at 10 mg ([2]; 4 h, day 10, 4 h post dose): 53% | receptor occupancy at 30 mg ([2]; 4 h, day 10, 4 h post dose): 71% | receptor occupancy at 45 mg ([2]; 4 h, day 10, 4 h post dose): 73% | receptor occupancy at 60 mg ([2]; 4 h, day 10, 4 h post dose): 70% | receptor occupancy at 10 mg [2, 6]: 47% | receptor occupancy at 30 mg [2, 6]: 69% | receptor occupancy at 45 mg [2, 6]: 73% | receptor occupancy at 60 mg [2, 6]: 76% | DAT RO % ([3]; 10 mg once a day, day 10, 4 h post dose): 12% and 21% and 18% | DAT RO % ([3]; 30 mg once a day, day 10, 4 h post dose): 22% and 43% and 36% | DAT RO % ([3]; 30 mg once a day, day 14, 24 h post last dose): 26% and 23% and 43% | DAT RO % ([3]; 45 mg once a day (30 mg for 3 days first), day 10, 4 h post dose): 42% and 44% and 48% | DAT RO % ([3]; 45 mg once a day (30 mg for 3 days first), day 14, 24 h post last dose): 36% and 41% and 43% | DAT RO % ([3]; 60 mg once a day (30 mg for 3 days first), day 10 (subject 77: day 11), 4 h post dose): 60% and 59% | DAT RO % ([3]; 60 mg once a day (30 mg for 3 days first), day 14, 24 h post last dose): 48% and 49% | DAT occupancy ([3]; following multiple doses of 60 mg): up to 60% | inhibition at 0.01 µM [4]: 35% | Formula I plasma concentration ([5]; 3 mg daily, male, day 14, draw at about 23-24 h (Ctrough)): 42 ng/mL | Cmax ([5]; female, human, plasma, oral, 45 mg, 45 mg daily, day 14, draw flagged Cmax (1-3 h)): 1680 ng/mL | concentration at 0 h ([5]; female, human, plasma, oral, 45 mg, 45 mg daily, female, read-out: Formula I plasma concentration): 997 ng/mL | concentration at 24 h ([5]; female, human, plasma, oral, 45 mg, 45 mg daily, female, day 14, draw at about 24 h (Ctrough), read-out: Formula I plasma concentration): 901 ng/mL | AUC ([5]; female, human, plasma, oral, 45 mg, 45 mg daily, female, day 14, printed in the 24 h draw line): 10100 ng·h/mL | concentration at 0 h ([5]; male, human, plasma, oral, 3 mg, 3 mg daily, male, read-out: Formula I plasma concentration): 42 ng/mL | Cmax ([5]; male, human, plasma, oral, 3 mg, 3 mg daily, male, day 14, draw flagged Cmax (1-3 h)): 66 ng/mL | AUC ([5]; male, human, plasma, oral, 3 mg, 3 mg daily, male, day 14, printed in the 23-24 h draw line): 439 ng·h/mL | Cmax ([5]; male, human, plasma, oral, 10 mg, 10 mg daily, day 14, draw flagged Cmax (1-3 h)): 218 ng/mL | concentration at 0 h ([5]; male, human, plasma, oral, 10 mg, 10 mg daily, male, read-out: Formula I plasma concentration): 125 ng/mL | AUC ([5]; male, human, plasma, oral, 10 mg, 10 mg daily, male, day 14, printed in the 23-24 h draw line): 1260 ng·h/mL | Cmax ([5]; male, human, plasma, oral, 45 mg, 45 mg daily, day 14, draw flagged Cmax (1-2 h)): 1150 ng/mL | concentration at 0 h ([5]; male, human, plasma, oral, 45 mg, 45 mg daily, male, read-out: Formula I plasma concentration): 635 ng/mL | concentration at 23 h ([5]; male, human, plasma, oral, 45 mg, 45 mg daily, male, day 14, draw at 23 h (Ctrough), read-out: Formula I plasma concentration): 672 ng/mL | AUC ([5]; male, human, plasma, oral, 45 mg, 45 mg daily, male, day 14, printed in the 23 h draw line): 6280 ng·h/mL
